Measurements reported in patent publication US8337792B2, “Aromatic imine compounds for use as sulfide scavengers” (priority 2007, dated 2012).

Key:
[1] = Comparison with conventional treatments against H2S dissolved in water (Table 2); conditions: 1,000 ppm H2S in water; for Lead acetate paper test, Head space / Lead acetate paper test, Liquid: paper colour
Excerpt: (§1) An overall comparison of the features of the present aromatic imine compounds and conventional compositions is shown in Table 3.

[2] = Comparison of features, safety and hazard (Table 3)
Excerpt: as §1

[3] = Solubility in water, oil, fuel and solvents; type: physicochemical
[4] = Comparison of features, performance and handling (Table 3)
Excerpt: as §1

SMILES | Residual H2S, I2 Titration [1] | Residual H2S, Outside Lab [1] | Lead acetate paper test, Head space [1] | Lead acetate paper test, Liquid [1] | Carcinogenicity [2] | Mutagenicity [2] | RCRA Hazardous Waste [2] | Safe to use [2] | Sensitizing chemical [2] | Toxicity [2] | Formaldehyde ([2]; formaldehyde in the product) | Oil Solubility [3] | Deodorizes [4] | Stable [4] | Strong bonding to H2S [4] | Reactivity* ([4]; 1 is highest) | Reactive at ambient temperature ([4]; ambient temperature)
O=CC=O [Glyoxal] | 350 ppm | 240 ppm | brown/ | yellow/ | yes | yes | yes | some | yes | no | 100 ppm | no | no | no | no | 1 | yes
OCCN1CN(CCO)CN(CCO)C1 [Triazine] | 660 ppm | 728 ppm | yellow/ | brown |  |  |  |  |  |  |  |  |  |  |  |  | 
